Results on 3 molecules are retold here after patent US20110239327A1, “Nematicidal Effects of Cysteine Proteinases and Methods of Use Thereof to Treat Nematode Infestation” (priority 2007, published 2011).

For assay [1], the system named is Meloidogyne spp. J2s. Nature of the assay: In vitro mobility of Meloidogyne spp. J2s exposed to plant cysteine proteinases. Conditions: 1 mM E-64, J2s incubated without enzyme. The assay is classed as cell-based, M. incognita or M. javanica. How it is done:
Eggs of M. incognita race 1 from North Carolina State University, USA, and M. javanica from Portugal were collected from the roots of infected tomato plants grown in a glasshouse at 23° C. in a 16:8 h light-dark regime. Eggs were extracted using 1% hypochlorite (NaClO) solution (Hussey and Barker, 1973) or by picking egg masses from the infected roots. M. incognita and M. javanica were both used in the experiments and produced similar results. Juveniles (J2) were hatched from the eggs and egg masses in water. Globodera rostochiensis cysts were washed extensively in distilled water. Hatched J2s were obtained by incubating cysts in distilled water for 4 days followed by exposure to potato root diffusate (PRD).
Approximately 1000 J2s (second juvenile stage) of M. incognita or M. javanica were incubated per well of a 48-well plate with the following active enzyme concentrations (determined by E-64 titration) of papain dissolved in distilled water containing 16 mM L-cysteine (to activate the cysteine proteinase): 1.5 μM, 3 μM, 6.25 μM, 12.5 μM, 25 μM, 50 μM, 75 μM and 100 μM. […] The number of active J2s per well was counted prior to the addition of papain, and then the J2s were incubated in the dark at room temperature for 3 h. The number of mobile J2s per well was counted after 60, 120 and 180 mins. […]

Assay [2] relates to M. incognita J2. Nature of the assay: In planta bioassay, two soil applications: nematode infection of tomato roots. The assay is classed as in vivo, M. incognita on tomato plants. Conditions: nematicide alone, no enzyme. Here is the method: Oxamyl is supplied as 10% liquid Vydate. 125 μl of a solution 1000 fold dilution of 10% formulation (kindly supplied by DK from NIU) was applied to 5 g of the soil mixture with 16% organic matter, to give a partial nematicidal effect. Soil mixtures were wetted with PBS pH 7.2, 16 hrs prior nematode application of 1000 or 2000 M. incognita J2. Infected soil mixtures were treated with water (control) or 250 μM of active papain in 16 mM of L-cysteine or a combination of Vydate and 250 μM of active papain in 16 mM of L-cysteine. After 48 hs tomato seedlings one month old were added to the treated soils. After 11 days the roots were washed free of soil and chopped to approximately 2 mm pieces. The root pieces of each tomato plant was placed in muslin bags and stained with acid-fuchsin. The stained roots were examined under microscope and all the nematodes present in the roots were counted. […] After 48 hours tomato seedlings one month old were added to the treated soils and after 11 days post infection nematode development inside root tissues was assessed as described above.
The avermectins are macrocyclic lactones produced by the actinomycete Streptomyces avermitilis. […] After 48 hs tomato seedlings one month old were added to the treated soils and after 11 days post infection nematode development inside root tissues was assessed as described above. […]

The subject of assay [3] is larvae in infected soil. Conditions: cited from earlier work.
Assay [4] relates to M. incognita J2. Nature of the assay: In vitro assay of M. incognita J2 present in soil mixtures. The assay is classed as cell-based. Particulars: Triton x-100 (1%), Milk (5%). Here is the method:
The same procedure described above was used to determine the effect of the cysteine proteinases against M. incognita J2 present in soil mixtures. The following soil mixtures were used: fine and coarse sand, peat and fine/coarse sand and loam mix and fine/coarse sand. These soil mixtures were prepared at concentrations of 1:1, 1:3 and 1:6 and autoclaved at […] for 20 min. Peat and loam-mix were obtained from Rothamsted-Research. Soil mixtures were added to 24 well plates (0.5 g) and wetted for 16 hs with either PBS ph 7.2, Tx-100, Milk 5% or cysteine proteinases, in order to wet the soil and block non-specific binding sites present in the soil particles. Then, approximately 100 J2 were added to the wells, followed by cysteine proteinases with 16 mM of L-cysteine to activate the cysteine proteinases or water as control. After 16 hs at room temperature in the dark, individual wells of the 24 well plates were flushed with 1 ml of distilled water to recover the nematodes from the soil mixtures. These were placed in a 24 well plate and the number of dead/live nematodes scored under microscopic observation.
These in vitro experiments were performed in 24 well plates using sterile soil mixtures to diminish the possibility of biological degradation of the enzyme by microorganisms. […] The number of live nematodes was counted before and after enzyme treatment. […]

For the molecule `CC(C)C[C@H](NC(=O)[C@H]1O[C@@H]1C(=O)O)C(=O)NCCCCN=C(N)N` (relative stereo) [E-64, L-trans-epoxysuccinyl-leucylamido(4-guanidino)butane, reference compound], the “proportion of active worms on addition of E-64” value in assay [1] was “No change in the proportion of active worms”.

On to Abamectin, for which the “nematicidal effect (reduction of nematode infection)” value in assay [2] is reported as 94%. Besides, in assay [3] (300 μl of abamectin solution (100 mg/l) to 50 g of infected soil), the larvae development allowed is 0%. Further, in assay [3] (2000 (so in the source) of abamectin solution (100 mg/l) to 50 g of infected soil), the “larvae allowed to develop” value is 75%.

Take Triton x-100: the “effect of blocking agents on nematode mobility” value in assay [4] is on record as “slightly affected nematode mobility”.
